Measurements: patent publication US20120172598A1, “COMPOUNDS HAVING TAFIa INHIBITORY ACTIVITY” (TAISHO PHARMACEUTICAL CO., LTD., priority 2009, published 2012)
Structures can show the parent of a compound that is named as a salt.

Molecular target: T1, TAFIa (Homo sapiens, UniProt Q96IY4)
T1 construct: purchased Enzyme Research Laboratories
T1 sequence (Q96IY4 115-423): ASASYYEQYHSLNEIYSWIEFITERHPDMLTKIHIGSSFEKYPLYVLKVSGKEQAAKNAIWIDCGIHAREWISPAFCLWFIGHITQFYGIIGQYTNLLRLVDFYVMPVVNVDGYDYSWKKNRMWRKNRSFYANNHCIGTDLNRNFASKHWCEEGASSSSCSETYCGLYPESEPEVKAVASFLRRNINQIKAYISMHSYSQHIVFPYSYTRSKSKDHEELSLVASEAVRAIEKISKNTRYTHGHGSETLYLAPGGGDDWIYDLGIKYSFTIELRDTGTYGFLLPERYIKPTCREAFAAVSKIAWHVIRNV
Assay: TAFIa inhibition test (Hip-Arg substrate, absorbance at 405 nm)
Type: biochemical
Details: TAFI activated with thrombin/thrombomodulin, 40 minutes at room temperature, read-out: TAFIa inhibitory activity IC50
Experimental: Test 1 [TAFIa Inhibition Test]
Compounds of the present invention were measured for their TAFIa inhibitory activity as follows based on the method described in Thromb. Haemost. 79, 371-377 (1998).
(a) Preparation of TAFIa Solution
To 450 μl of TAFI (the product of Enzyme Research Laboratories whose concentration was adjusted to 18 μg/ml with buffer A: 100 mM Tris-HCl, pH 7.4), 45 μl of a thrombomodulin solution (a rabbit lung derived thrombomodulin produced by American Diagnostica whose concentration was adjusted to 1 μg/ml with buffer B: 50 mM Tris-HCl, pH 7.5, containing 0.15 M NaCl) and 45 μl of a thrombin solution (a freeze-dried human plasma derived thrombin produced by Sigma and dissolved in water to have a concentration of 30 μU/ml) were added and the mixture was left to stand at room temperature for 25 minutes.
(b) Method of Measuring TAFIa Inhibitory Activity […]
Subsequently, a color former (1% cyanuric chloride in 1,4-dioxane) was added in an amount of 50 μl to each well and the plate was left to stand for 3 minutes at room temperature, then absorbance at 405 nm was measured with a microplate reader (Spectramax M2 of Molecular Devices). […]
For two compounds of the present invention, the above test was conducted and on the basis of the results of measurements, TAFIa inhibitory activity was calculated to give the results shown in Table 2.

| IC50 | Compound |
| --- | --- |
| 0.036 µM | N[C@H]1CCN([C@@H](Cc2ncn3c2CCc2ccccc2-3)C(=O)O)C1 [Compound 1, (2S)-2-[(3S)-3-aminopyrrolidin-1-yl]-3-(4,5-dihydroimidazo[1,5-a]quinolin-3-yl)propanoic acid trihydrochloride] |
| 0.023 µM | Cc1ccc2c(c1)CCc1c(C[C@@H](C(=O)O)N3CC[C@H](N)C3)ncn1-2 [Compound 2, (2S)-2-[(3S)-3-aminopyrrolidin-1-yl]-3-(7-methyl-4,5-dihydroimidazo[1,5-a]quinolin-3-yl)propanoic acid trihydrochloride] |
